According to publication PMC5218480 (PLoS ONE, 2017):

Test system: MV-4-11 cells
Assay: Gene expression microarray analysis (Affymetrix PrimeView) and GSEA
Type: cell-based, human
Parameters: RFU PODN (11730768_x_at) / Fold change /veh PODN (11730768_x_at) / RFU LINC00158 (11744669_a_at) / Fold change /veh LINC00158 (11744669_a_at) / RFU DUSP10 (11751237_a_at) / Fold change /veh DUSP10 (11751237_a_at) / RFU ID3 (11757404_x_at) / Fold change /veh ID3 (11757404_x_at) / RFU PLEKHG5 (11737974_s_at) / Fold change /veh PLEKHG5 (11737974_s_at) / RFU LRRC4B (11730491_at) / Fold change /veh LRRC4B (11730491_at) / RFU GIMAP4 (11747438_a_at) / Fold change /veh GIMAP4 (11747438_a_at) / RFU KRT8 (11758183_x_at) / Fold change /veh KRT8 (11758183_x_at) / RFU CNN1 (11734310_a_at) / Fold change /veh CNN1 (11734310_a_at) / RFU VPS37D (11726825_at) / Fold change /veh VPS37D (11726825_at) / RFU C10orf10 (11716522_x_at) / Fold change /veh C10orf10 (11716522_x_at) / RFU KIR2DL2 /// KIR2DL4 /// KIR2DL5A /// KIR2DL5B /// KIR2DS1 /// KIR2DS2 /// KIR2DS3 /// KIR2DS4 /// KIR3DL3 /// KIR3DL3 /// KIR3DS1 (11738374_at) / Fold change /veh KIR2DL2 /// KIR2DL4 /// KIR2DL5A /// KIR2DL5B /// KIR2DS1 /// KIR2DS2 /// KIR2DS3 /// KIR2DS4 /// KIR3DL3 /// KIR3DL3 /// KIR3DS1 (11738374_at) / RFU C1QL1 (11718748_at) / Fold change /veh C1QL1 (11718748_at) / RFU TMPRSS4 (11747572_a_at) / Fold change /veh TMPRSS4 (11747572_a_at) / RFU HAMP (11756126_x_at) / Fold change /veh HAMP (11756126_x_at) / RFU RNFT2 (11725882_a_at) / Fold change /veh RNFT2 (11725882_a_at) / RFU NR4A2 (11747474_a_at) / Fold change /veh NR4A2 (11747474_a_at) / RFU ABCC12 (11746883_a_at) / Fold change /veh ABCC12 (11746883_a_at) / RFU TMEM136 (11760407_x_at) / Fold change /veh TMEM136 (11760407_x_at) / RFU CLDN22 /// WWC2 (11732394_at) / Fold change /veh CLDN22 /// WWC2 (11732394_at) / RFU HLA-DPB1 (11760878_x_at) / Fold change /veh HLA-DPB1 (11760878_x_at) / RFU SPINT1 (11716480_a_at) / Fold change /veh SPINT1 (11716480_a_at) / RFU GAP43 (11754022_s_at) / Fold change /veh GAP43 (11754022_s_at) / RFU A4GNT (11735810_at) / Fold change /veh A4GNT (11735810_at) / RFU PRB3 (11715151_x_at) / Fold change /veh PRB3 (11715151_x_at) / RFU TUBB4B (11761932_at) / Fold change /veh TUBB4B (11761932_at) / RFU CAPN14 (11732068_a_at) / Fold change /veh CAPN14 (11732068_a_at) / RFU TMCC2 (11721928_a_at) / Fold change /veh TMCC2 (11721928_a_at) / RFU IRGQ (11745062_a_at) / Fold change /veh IRGQ (11745062_a_at) / RFU FAM174B (11720279_a_at) / Fold change /veh FAM174B (11720279_a_at) / RFU TMPRSS4 (11748680_a_at) / Fold change /veh TMPRSS4 (11748680_a_at) / RFU FAM212B (11763350_a_at) / Fold change /veh FAM212B (11763350_a_at) / RFU PLEKHG5 (11743358_a_at) / Fold change /veh PLEKHG5 (11743358_a_at) / RFU ZSCAN30 (11745921_a_at) / Fold change /veh ZSCAN30 (11745921_a_at) / RFU CMKLR1 (11741424_a_at) / Fold change /veh CMKLR1 (11741424_a_at) / RFU LOC101060620 /// MAPK8IP1 (11723275_at) / Fold change /veh LOC101060620 /// MAPK8IP1 (11723275_at) / RFU SPTSSB (11747773_x_at) / Fold change /veh SPTSSB (11747773_x_at) / RFU PRSS12 (11739890_at) / Fold change /veh PRSS12 (11739890_at) / RFU BIN1 (11741810_x_at) / Fold change /veh BIN1 (11741810_x_at) / RFU WNT11 (11732464_a_at) / Fold change /veh WNT11 (11732464_a_at) / RFU C10orf10 (11716521_a_at) / Fold change /veh C10orf10 (11716521_a_at) / RFU C5orf56 (11738089_at) / Fold change /veh C5orf56 (11738089_at) / RFU CYB561 (11721691_x_at) / Fold change /veh CYB561 (11721691_x_at) / RFU ANKRD19P (11752326_a_at) / Fold change /veh ANKRD19P (11752326_a_at) / RFU OR2T12 /// OR2T33 /// OR2T8 (11738714_s_at) / Fold change /veh OR2T12 /// OR2T33 /// OR2T8 (11738714_s_at) / RFU VCAN (11748164_a_at) / Fold change /veh VCAN (11748164_a_at) / RFU JSRP1 (11732532_at) / Fold change /veh JSRP1 (11732532_at) / RFU KRTAP10-11 (11738290_x_at) / Fold change /veh KRTAP10-11 (11738290_x_at) / RFU MYO3A (11730013_a_at) / Fold change /veh MYO3A (11730013_a_at) / RFU EBF3 (11725865_a_at) / Fold change /veh EBF3 (11725865_a_at) / RFU CAMK2N1 (11719241_x_at) / Fold change /veh CAMK2N1 (11719241_x_at) / RFU C5orf56 (11738088_a_at) / Fold change /veh C5orf56 (11738088_a_at) / RFU OLFML3 (11715873_a_at) / Fold change /veh OLFML3 (11715873_a_at) / RFU LOC100653217 /// NTM (11731650_a_at) / Fold change /veh LOC100653217 /// NTM (11731650_a_at) / RFU MAPK11 (11762145_a_at) / Fold change /veh MAPK11 (11762145_a_at) / RFU FIZ1 (11724087_x_at) / Fold change /veh FIZ1 (11724087_x_at) / RFU OASL (11726364_x_at) / Fold change /veh OASL (11726364_x_at) / RFU SOX15 (11748057_x_at) / Fold change /veh SOX15 (11748057_x_at) / RFU CD79A (11719716_a_at) / Fold change /veh CD79A (11719716_a_at) / RFU HIST1H1D (11736915_at) / Fold change /veh HIST1H1D (11736915_at) / RFU CASKIN2 (11723855_a_at) / Fold change /veh CASKIN2 (11723855_a_at) / RFU LOC730098 (11760151_x_at) / Fold change /veh LOC730098 (11760151_x_at) / RFU OR4N2 (11742367_at) / Fold change /veh OR4N2 (11742367_at) / RFU PRRT2 (11749266_a_at) / Fold change /veh PRRT2 (11749266_a_at) / RFU SNX32 (11753110_a_at) / Fold change /veh SNX32 (11753110_a_at) / RFU CDHR5 (11726645_a_at) / Fold change /veh CDHR5 (11726645_a_at) / RFU RCAN1 (11760418_a_at) / Fold change /veh RCAN1 (11760418_a_at) / RFU FAM167A (11723789_a_at) / Fold change /veh FAM167A (11723789_a_at) / RFU FAM26E (11764081_at) / Fold change /veh FAM26E (11764081_at) / RFU ISYNA1 (11749810_s_at) / Fold change /veh ISYNA1 (11749810_s_at) / RFU ACY1 (11761880_at) / Fold change /veh ACY1 (11761880_at) / RFU 11764098_at / Fold change /veh 11764098_at / RFU SAMD14 (11745864_x_at) / Fold change /veh SAMD14 (11745864_x_at) / RFU NPB (11741838_a_at) / Fold change /veh NPB (11741838_a_at) / RFU TMPRSS6 (11731388_a_at) / Fold change /veh TMPRSS6 (11731388_a_at) / RFU KRTAP10-2 (11738614_at) / Fold change /veh KRTAP10-2 (11738614_at) / RFU ARHGAP8 /// PRR5-ARHGAP8 (11727945_x_at) / Fold change /veh ARHGAP8 /// PRR5-ARHGAP8 (11727945_x_at) / RFU KRTAP5-7 /// NADSYN1 (11734609_at) / Fold change /veh KRTAP5-7 /// NADSYN1 (11734609_at) / RFU RASL12 (11751679_a_at) / Fold change /veh RASL12 (11751679_a_at) / RFU CDKN2B (11736163_a_at) / Fold change /veh CDKN2B (11736163_a_at) / RFU PRF1 (11729649_at) / Fold change /veh PRF1 (11729649_at) / RFU, ZNF638 /// ZNF638-IT1 / Fold change vs veh, ZNF638 /// ZNF638-IT1 / RFU, PANK3 / Fold change vs veh, PANK3 / RFU, SH3YL1 / Fold change vs veh, SH3YL1 / RFU, ZEB2 / Fold change vs veh, ZEB2 / RFU, NRIP1 / Fold change vs veh, NRIP1 / RFU, PTTG1IP / Fold change vs veh, PTTG1IP / RFU, CAPN2 / Fold change vs veh, CAPN2 / RFU, MED14 / Fold change vs veh, MED14 / RFU, SNORA58 / Fold change vs veh, SNORA58 / RFU, C1orf63 / Fold change vs veh, C1orf63 / RFU, LRRFIP1 / Fold change vs veh, LRRFIP1 / RFU, NDUFAF7 / Fold change vs veh, NDUFAF7 / RFU, SLC12A2 / Fold change vs veh, SLC12A2 / RFU, IBTK / Fold change vs veh, IBTK / RFU, ESF1 / Fold change vs veh, ESF1 / Fold change vs veh, TMEM50B / RFU, TAOK1 / Fold change vs veh, TAOK1 / RFU, ACBD3 / Fold change vs veh, ACBD3 / RFU, TMA16 / Fold change vs veh, TMA16 / RFU, RWDD3 / Fold change vs veh, RWDD3 / RFU, BCAT1 / Fold change vs veh, BCAT1 / RFU, EDEM3 / Fold change vs veh, EDEM3 / RFU, TMEM33 / Fold change vs veh, TMEM33 / RFU, WDR75 / Fold change vs veh, WDR75 / RFU, AHCTF1 / Fold change vs veh, AHCTF1 / RFU, TFRC / Fold change vs veh, TFRC / RFU, ZDHHC17 / Fold change vs veh, ZDHHC17 / RFU, NOM1 / Fold change vs veh, NOM1 / RFU, ARL8B / Fold change vs veh, ARL8B / RFU, ZBTB11 / Fold change vs veh, ZBTB11 / RFU, TAMM41 / Fold change vs veh, TAMM41 / RFU, KIAA1704 /// LOC100996395 / Fold change vs veh, KIAA1704 /// LOC100996395 / RFU, ING1 / Fold change vs veh, ING1 / RFU, TRMT61B / Fold change vs veh, TRMT61B / RFU, FUBP3 / Fold change vs veh, FUBP3 / RFU, TP53 / Fold change vs veh, TP53 / RFU, TNKS2 / Fold change vs veh, TNKS2 / RFU, ZFP14 / Fold change vs veh, ZFP14 / RFU, ACTR2 / Fold change vs veh, ACTR2 / RFU, PPP3R1 / Fold change vs veh, PPP3R1 / RFU, PIK3R1 / Fold change vs veh, PIK3R1 / RFU, HNRNPA1 / Fold change vs veh, HNRNPA1 / RFU, RNF170 / Fold change vs veh, RNF170 / RFU, ZNF28 / Fold change vs veh, ZNF28 / RFU, RNGTT / Fold change vs veh, RNGTT / RFU, OGT / Fold change vs veh, OGT / RFU, BRD1 / Fold change vs veh, BRD1 / RFU, MARS / Fold change vs veh, MARS / RFU, ZNF655 / Fold change vs veh, ZNF655 / RFU, FAHD1 / Fold change vs veh, FAHD1 / RFU, BDP1 / Fold change vs veh, BDP1 / RFU, LRRCC1 / Fold change vs veh, LRRCC1 / RFU, ARID1A / Fold change vs veh, ARID1A / RFU, ZNF146 / Fold change vs veh, ZNF146 / RFU, ZNF330 / Fold change vs veh, ZNF330 / RFU, GPN3 / Fold change vs veh, GPN3 / RFU, C9orf123 / Fold change vs veh, C9orf123 / RFU, N4BP2L2 / Fold change vs veh, N4BP2L2 / RFU, ARFIP1 / Fold change vs veh, ARFIP1 / RFU, FAM179B / Fold change vs veh, FAM179B / RFU, BCL10 / Fold change vs veh, BCL10 / RFU, UHRF1BP1L / Fold change vs veh, UHRF1BP1L / RFU, BET1 / Fold change vs veh, BET1 / RFU, CNOT2 / Fold change vs veh, CNOT2 / RFU, ZNF268 / Fold change vs veh, ZNF268 / Fold change vs veh, ZNF507 / RFU, DGCR2 / Fold change vs veh, DGCR2 / RFU, WDSUB1 / Fold change vs veh, WDSUB1 / Fold change vs veh, HSP90B1 /// MIR3652 / RFU, ADSS / Fold change vs veh, ADSS / RFU, GK / Fold change vs veh, GK / RFU, ZNF148 / Fold change vs veh, ZNF148 / RFU, TAF9 / Fold change vs veh, TAF9 / RFU, SLC1A5 / Fold change vs veh, SLC1A5 / RFU, SLMO2 / Fold change vs veh, SLMO2 / RFU, ABCC4 / Fold change vs veh, ABCC4 / RFU, LOC101060439 /// RAP1B / Fold change vs veh, LOC101060439 /// RAP1B / RFU, RFX7 / Fold change vs veh, RFX7 / RFU, GTPBP10 / Fold change vs veh, GTPBP10 / RFU, CNEP1R1 / Fold change vs veh, CNEP1R1 / RFU, BIVM-ERCC5 /// ERCC5 / Fold change vs veh, BIVM-ERCC5 /// ERCC5 / RFU, ILF3 / Fold change vs veh, ILF3 / RFU 11762660_at / Fold change /veh 11762660_at / RFU VCAN (11757783_s_at) / Fold change /veh VCAN (11757783_s_at) / RFU DDX43 (11728927_at) / Fold change /veh DDX43 (11728927_at) / RFU KRT8 (11758188_x_at) / Fold change /veh KRT8 (11758188_x_at) / RFU NKD1 (11759106_at) / Fold change /veh NKD1 (11759106_at) / RFU SRD5A1 (11742802_a_at) / Fold change /veh SRD5A1 (11742802_a_at) / RFU TPSAB1 /// TPSB2 (11721975_s_at) / Fold change /veh TPSAB1 /// TPSB2 (11721975_s_at) / RFU GSTM3 (11746129_a_at) / Fold change /veh GSTM3 (11746129_a_at) / RFU IL23R (11737362_x_at) / Fold change /veh IL23R (11737362_x_at) / RFU TMEM51 (11727254_a_at) / Fold change /veh TMEM51 (11727254_a_at) / RFU PIWIL2 (11732686_x_at) / Fold change /veh PIWIL2 (11732686_x_at) / RFU ORM1 (11744905_x_at) / Fold change /veh ORM1 (11744905_x_at) / RFU CCDC152 (11743942_at) / Fold change /veh CCDC152 (11743942_at) / RFU ECM1 (11717891_a_at) / Fold change /veh ECM1 (11717891_a_at) / RFU IL23R (11748794_a_at) / Fold change /veh IL23R (11748794_a_at) / RFU TNFAIP8L3 (11732012_x_at) / Fold change /veh TNFAIP8L3 (11732012_x_at) / RFU MBOAT4 (11741988_at) / Fold change /veh MBOAT4 (11741988_at) / RFU 11764193_at / Fold change /veh 11764193_at / RFU TMEM53 (11763286_at) / Fold change /veh TMEM53 (11763286_at) / RFU MAGEB2 (11727129_at) / Fold change /veh MAGEB2 (11727129_at) / RFU TMEM200A (11744735_a_at) / Fold change /veh TMEM200A (11744735_a_at) / RFU CCDC152 (11751479_a_at) / Fold change /veh CCDC152 (11751479_a_at) / RFU FAM211A (11726209_a_at) / Fold change /veh FAM211A (11726209_a_at) / RFU RGS16 (11746705_a_at) / Fold change /veh RGS16 (11746705_a_at) / RFU VCAN (11755009_s_at) / Fold change /veh VCAN (11755009_s_at) / RFU RHOB (11743442_s_at) / Fold change /veh RHOB (11743442_s_at) / RFU RGS16 (11720943_a_at) / Fold change /veh RGS16 (11720943_a_at) / RFU RGS16 (11720944_at) / Fold change /veh RGS16 (11720944_at) / RFU, VPS4B / Fold change vs veh, VPS4B / RFU, CREB1 / Fold change vs veh, CREB1 / RFU, DNAJC13 / Fold change vs veh, DNAJC13 / RFU, GNAQ / Fold change vs veh, GNAQ / RFU, CDK5R1 / Fold change vs veh, CDK5R1 / RFU, ZRANB3 / Fold change vs veh, ZRANB3 / RFU, CUL4A / Fold change vs veh, CUL4A / RFU, CCNY / Fold change vs veh, CCNY / RFU, UFL1 / Fold change vs veh, UFL1 / RFU, COG3 / Fold change vs veh, COG3 / RFU, DIAPH2 / Fold change vs veh, DIAPH2 / RFU, SKA2 / Fold change vs veh, SKA2 / RFU, AFF3 / Fold change vs veh, AFF3 / RFU, LMF1 / Fold change vs veh, LMF1 / RFU, IPO11 / Fold change vs veh, IPO11 / RFU, DFFB / Fold change vs veh, DFFB / RFU, FOXP1 / Fold change vs veh, FOXP1 / RFU, CARD8 / Fold change vs veh, CARD8 / RFU, STRN3 / Fold change vs veh, STRN3 / RFU, ADK / Fold change vs veh, ADK / RFU, RASSF2 / Fold change vs veh, RASSF2 / RFU, WIPF1 / Fold change vs veh, WIPF1 / RFU, LARP1B / Fold change vs veh, LARP1B / RFU, RASA1 / Fold change vs veh, RASA1 / RFU, RB1 / Fold change vs veh, RB1 / RFU, PPFIA1 / Fold change vs veh, PPFIA1 / RFU, MAT2A / Fold change vs veh, MAT2A / RFU, CCT5 / Fold change vs veh, CCT5 / RFU, WDR92 / Fold change vs veh, WDR92 / RFU, CUX1 / Fold change vs veh, CUX1 / RFU, TTC7A / Fold change vs veh, TTC7A / RFU, TMEM135 / Fold change vs veh, TMEM135 / RFU, DEPTOR / Fold change vs veh, DEPTOR / RFU, CPM / Fold change vs veh, CPM / RFU, DNAJB6 / Fold change vs veh, DNAJB6 / RFU, CACNA2D3 / Fold change vs veh, CACNA2D3 / RFU, DTX4 / Fold change vs veh, DTX4 / RFU, TFCP2 / Fold change vs veh, TFCP2 / RFU, GMCL1 /// GMCL1P1 / Fold change vs veh, GMCL1 /// GMCL1P1 / RFU, AEBP2 / Fold change vs veh, AEBP2 / RFU, SNHG1 /// SNORD22 /// SNORD25 /// SNORD26 /// SNORD27 /// SNORD28 /// SNORD29 /// SNORD31 / Fold change vs veh, SNHG1 /// SNORD22 /// SNORD25 /// SNORD26 /// SNORD27 /// SNORD28 /// SNORD29 /// SNORD31 / Fold change (Aza/veh), C12orf56 (ProbeSet 11735607_a_at) / Fold change (ACY-1035/veh), C12orf56 (ProbeSet 11735607_a_at) / Fold change (Aza/veh), FGFR1OP (ProbeSet 11751329_s_at) / Fold change (ACY-1035/veh), FGFR1OP (ProbeSet 11751329_s_at) / Fold change (Aza/veh), VPS36 (ProbeSet 11739960_a_at) / Fold change (ACY-1035/veh), VPS36 (ProbeSet 11739960_a_at) / RFU SYPL1 (11715823_x_at) / Fold change /veh SYPL1 (11715823_x_at) / RFU IGFBP7 (11715501_s_at) / Fold change /veh IGFBP7 (11715501_s_at) / RFU REEP3 (11722064_at) / Fold change /veh REEP3 (11722064_at) / RFU IGLL1 (11728026_x_at) / Fold change /veh IGLL1 (11728026_x_at): dose or concentration left out as unconfirmed
Conditions: ProbeSet 11740528_a_at; LIST D

## Nc1ccc(-c2cccs2)cc1NC(=O)c1ccc2c(c1)cc(C1CC1)n2CCN1CCOCC1 [ACY-1035]
  RFU, AFF3: 703.28 RFU
